Test results as given in patent US6472348B1, “Pyridone derivatives and herbicides” (Kumiai Chemical Industry Co., Ltd., priority 1996, dated 2002).

Legend:
barnyardgrass (Ec) [1] = assay: Test Example 1: herbicidal effects by paddy field soil treatment; format: in vivo; conditions: 100 g of the active ingredient per 10 ares, 21st day after the application, index 0-5 of Table 47;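 note: grade of growth control; 5 = at least 90%; 4 = 70 to 90%; 3 = 50 to 70%; 2 = 30 to 50%; 1 = 10 to 30%; 0 = under 10%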
In short: (§1)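 Scoring of herbicidal effect came 21 days after application of 100 g active ingredient per 10 ares to flooded (3 cm) paddy-soil pots sown with barnyardgrass, monochoria and bulrush, kept in a greenhouse.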

bulrush (Sc) = assay: as above; format: in vivo; conditions: 100 g of the active ingredient per 10 ares, 21st day after the application, index 0-5 of Table 47;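 note: grade of growth control; 5 = at least 90%; 4 = 70 to 90%; 3 = 50 to 70%; 2 = 30 to 50%; 1 = 10 to 30%; 0 = under 10%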
In short: as §1

monochoria (Mo) = assay: as above; format: in vivo; conditions: 100 g of the active ingredient per 10 ares, 21st day after the application, index 0-5 of Table 47;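 note: grade of growth control; 5 = at least 90%; 4 = 70 to 90%; 3 = 50 to 70%; 2 = 30 to 50%; 1 = 10 to 30%; 0 = under 10%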
In short: as §1

Diaitaria ciliaris (Di) = assay: Test Example 3: herbicidal effects by upland field foliage treatment; format: in vivo; parameters: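 grade of growth control; 5 = at least 90%; 4 = 70 to 90%; 3 = 50 to 70%; 2 = 30 to 50%; 1 = 10 to 30%; 0 = under 10%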; conditions: 100 g active ingredient per 10 ares, evaluated 14th day after treatment
In short: (§2)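 Weeds were sown in sand-filled pots (surface area: 120 cm^2), covered with soil and grown in a greenhouse for 2 weeks before foliar treatment. Plants then stayed in the greenhouse, and herbicidal effect was scored against graded standards on the 14th day after treatment.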

barnyardgrass (Ec) [2] = assay: as above; format: in vivo; parameters: scale not given here; conditions: 100 g active ingredient per 10 ares, evaluated 14th day after treatment
In short: as §2

[3] = tested on: common lambsquarters (Ch); assay: as above; format: in vivo; parameters: scale not given here; conditions: 100 g active ingredient per 10 ares, evaluated 14th day after treatment
In short: as §2

rice flatsedge (Ci) = assay: as above; format: in vivo; parameters: scale not given here; conditions: 100 g active ingredient per 10 ares, evaluated 14th day after treatment
In short: as §2

slender amaranth (Am) = assay: as above; format: in vivo; parameters: scale not given here; conditions: 100 g active ingredient per 10 ares, evaluated 14th day after treatment
In short: as §2

cotton (Go) = assay: Test Example 4: crop plant selectivity by upland field soil treatment (cotton), phytotoxicity; format: in vivo; parameters: scale not given here; conditions: evaluated 21st day after application
In short: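 Seeds of cotton and several weed species were sown in sand-filled pots and covered with soil before soil treatment with the test compound. Plants were grown in a greenhouse, and herbicidal effect and crop phytotoxicity were scored against set standards 21 days after application.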

soybean (Gl) = assay: Test Example 6: crop plant selectivity by upland field soil treatment (soybean), phytotoxicity; format: in vivo; parameters: scale not given here; conditions: 21st day after application
In short: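 Seeds are sown in sand and covered with soil. The soil is treated with test compound. Pots are kept in a greenhouse. Weed control and soybean damage are rated visually 21 days after application.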

corn (Ze) = assay: Test Example 7: crop plant selectivity by upland field soil treatment (corn), phytotoxicity; format: in vivo; parameters: scale not given here; conditions: 21st day after application
In short: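 Values are ratings of herbicidal effect and phytotoxicity on a standard scale, taken 21 days after application. Test species were sown together with corn in sand-filled pots, covered with soil, and grown in a greenhouse.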

wheat (Tr) = assay: Test Example 9: crop plant selectivity by upland field foliage treatment (wheat), phytotoxicity; conditions: dose 1.6 g ai/10a, 14th day after treatment;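 note: grade of crop injury; 5 = at least 90%; 4 = 70 to 90%; 3 = 50 to 70%; 2 = 30 to 50%; 1 = 10 to 30%; 0 = under 10%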
In short: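 Wheat and broadleaf weeds were sown together in sand-filled pots and grown for 2 weeks in a greenhouse before foliar treatment. Herbicidal effect on weeds and phytotoxicity to wheat were scored visually against set grading standards on day 14 after treatment, with plants kept in the greenhouse.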

Structure (SMILES)	Herbicidal effects Ec (barnyardgrass (Ec) [1])	Herbicidal effects Sc (bulrush (Sc))	Herbicidal effects Mo (monochoria (Mo))	Herbicidal effects Di (Diaitaria ciliaris (Di))	Herbicidal effects Ec (barnyardgrass (Ec) [2])	Herbicidal effects Ch [3]	Herbicidal effects Ci (rice flatsedge (Ci))	Herbicidal effects Am (slender amaranth (Am))	Phytotoxicity Go (cotton (Go); dose 6.3 g ai/10 a)	Phytotoxicity Gl (soybean (Gl); dose 6.3 g ai/10a)	Phytotoxicity Ze (corn (Ze); dose 6.3 g ai/10a)	Phytotoxicity Tr (wheat (Tr))	Phytotoxicity Go (cotton (Go); dose 1.6 g ai/10 a)	Phytotoxicity Gl (soybean (Gl); dose 1.6 g ai/10a)	Phytotoxicity Ze (corn (Ze); dose 1.6 g ai/10a)
CCCC(=O)c1cc(-c2ccc(C(F)(F)F)n(C)c2=O)c(F)cc1Cl [Compound No. 1-194, 3-[4-chloro-2-fluoro-5-(1-oxobutyl)phenyl]-1-methyl-6-trifluoromethyl-2(1H)-pyridone]	5	5	5	5	5	5	5	5	1	1	0	1			
Cn1c(C(F)(F)F)ccc(-c2c(F)cc(Cl)c3oc(CO)cc23)c1=O [Compound No. 4-5, 3-(7-chloro-5-fluoro-2-hydroxymethylbenzofuran-4-yl)-1-methyl-6-trifluoromethyl-2-(1H)-pyridone]	5	5	5	5	5	5	5	5	2	2	0	2			
Cn1c(C(F)(F)F)ccc(-c2c(F)cc(Cl)c3occc23)c1=O [Compound No. 4-28, 3-(7-chloro-5-fluorobenzofuran-4-yl)-1-methyl-6-trifluoromethyl-2-(1H)-pyridone]	5	5	5	5	4	5	5	5	1			2	0	2	1
